Laboratory results taken from patent publication US20030224942A1, “Alkylamino-1,3,5-triazines, processes for their preparation and their use as herbicides and plant growth regulators” (priority 2001, published 2003).

Legend:
[1] = test system: Chenopodium spp., Papaver spp., Polygonum spp., Veronica spp. or Viola spp.; test: Post-emergence effect on weeds (greenhouse pot test, visual scoring); assay type: in vivo, monocotyledonous and dicotyledonous weeds; conditions: treated at three-leaf stage; visual scoring after about 3 to 4 weeks; application rate of 0.5 kg and less of active substance per hectare
[2] = test system: Cyperus spp., Echinochloa spp., Digitaria spp., Sagitaria spp. and Scirpus spp.; test: Action on harmful plants in rice (paddy rice conditions, visual scoring); assay type: in vivo, typical rice weeds (gramineous and broad-leaved); conditions: applied into the dammed water, visual scoring about three weeks after application
How it was run: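 Rice and typical gramineous and broad-leaved rice weeds grown in closed pots in greenhouse under paddy conditions (2-3 cm water) to three-leaf stage (Echinochloa crus-galli 1.5-leaf), then treated with compounds. Plants kept under optimum greenhouse conditions throughout; effect scored visually.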

Structure (SMILES) | herbicidal activity post-emergence against harmful plants [1] | herbicidal activity against harmful plants which are typical for rice crops [2]
CC#Cc1ccc(C(C)Nc2nc(N)nc(C(C)(C)F)n2)cc1 (stereo not shown) [Product P17.1583] | very good herbicidal activity | very good herbicidal activity
CC(C)c1nc(N)nc(NCc2ccc(C3CC3)cc2)n1 [Product P11.1604] | very good herbicidal activity | very good herbicidal activity
CCC(F)c1nc(N)nc(NCc2ccc(C3CC3)cc2)n1 (stereo not shown) [Product P26.1604] | very good herbicidal activity | very good herbicidal activity
CCc1nc(N)nc(NC(c2cccc(C(F)=C(F)F)c2)C2CC2)n1 (stereo not shown) [Product P9.1567] | very good herbicidal activity | very good herbicidal activity
C#Cc1cc(C(C)Nc2nc(C)nc(N)n2)ccc1F (stereo not shown) [Product P2.309] | very good herbicidal activity | very good herbicidal activity
CCC(F)c1nc(N)nc(NCc2ccc(F)c(C3CC3)c2)n1 (stereo not shown) [Product P26.916] | very good herbicidal activity | very good herbicidal activity
CC#Cc1cc(C(Nc2nc(N)nc(C(F)CC)n2)C2CC2)ccc1F (stereo not shown) [Product P29.384] | very good herbicidal activity | very good herbicidal activity
C#Cc1ccc(CNc2nc(N)nc(C(F)CC)n2)cc1 (stereo not shown) [Product P26.1580] | very good herbicidal activity | very good herbicidal activity
CC#Cc1c(F)cc(CNc2nc(N)nc(CC)n2)cc1F [Product P6.428] | very good herbicidal activity | very good herbicidal activity
C#Cc1ccc(CNc2nc(N)nc(C(C)C)n2)cc1 [Product P11.1580] | very good herbicidal activity | very good herbicidal activity
C#Cc1ccc(C(C)Nc2nc(C)nc(N)n2)cc1 (stereo not shown) [Product P2.1580] | very good herbicidal activity | very good herbicidal activity
C=C=Cc1c(F)cc(C(C)Nc2nc(N)nc(C(C)(C)F)n2)cc1F (stereo not shown) [Product P17.656] | very good herbicidal activity | very good herbicidal activity
CCc1nc(N)nc(NC(C)c2cc(F)c(C(F)=C(F)F)c(F)c2)n1 (stereo not shown) [Product P7.49] | very good herbicidal activity | very good herbicidal activity
CC(Nc1nc(N)nc(C(C)(C)F)n1)c1ccc(F)c(C2CC2)c1 (stereo not shown) [Product P17.916] | very good herbicidal activity | very good herbicidal activity
CC(F)c1nc(N)nc(NC(C)c2ccc(F)c(C3CC3)c2)n1 (stereo not shown) [Product P22.916] | very good herbicidal activity | very good herbicidal activity
C#Cc1ccc(C(Nc2nc(N)nc(C(C)C)n2)C2CC2)cc1 (stereo not shown) [Product P14.1580] | very good herbicidal activity | very good herbicidal activity
CCC(F)c1nc(N)nc(NC(C)c2cc(F)c(C(F)=C(F)F)c(F)c2)n1 (stereo not shown) [Product P27.49] | very good herbicidal activity | very good herbicidal activity
